These are literature values, as cited in patent publication US10188610B2, “Prolonged-release diphenidol composition” (INVEKRA, S.A.P.I. DE C.V., priority 2013, dated 2019).

Structures can show the parent of a compound that is named as a salt.

The conditions of the data set: after oral administration.

In the case of `OC(CCCN1CCCCC1)(c1ccccc1)c1ccccc1` [Diphenidol hydrochloride, α,α-diphenil-1-piperidinebutanol], the half life was 4 h.
